Source: patent US6395725B1, “Analgesic methods using synthetic catalysts for the dismutation of superoxide radicals” (priority 1997, dated 2002)

Tests used:
[1] = system: morphine tolerance; settings: literature background; cited from earlier work
[2] = system: tolerance to morphine; test: Morphine tolerance in mice, hot plate test; type: in vivo
Method: Mice were treated twice a day with either saline (naive) or morphine (s.c., 10 mg/kg) for a period of 4 days to induce tolerance. For comparison, a dose of 10 mg, or less than 0.15 mg/kg every 4 to 10 hours, is a morphine dosage routinely prescribed for the 70 kg. human adult with severe pain. On day 5, all mice received a subcutaneous challenge dose of 3 mg./kg morphine and the level of analgesia was measured 30 minutes later. […] Tolerance to morphine was eliminated in mice that were treated with the superoxide dismutase catalyst SC-72325 administered intraperitoneally.

[3] = system: temporomandibular joint dysfunction; settings: intra-articular injections, patients with TMJ dysfunction; cited from earlier work

C[C@]12N[C@H](Cc3ccccc31)c1ccccc12 [MK-801]
morphine tolerance [1]: prevent morphine tolerance

CN1CC[C@]23c4c5ccc(O)c4O[C@H]2[C@@H](O)C=C[C@H]3[C@H]1C5 [morphine]
analgesic effect from morphine on day 5 ([2]; mice treated with morphine s.c. 10 mg/kg twice a day for 4 days, challenge 3 mg/kg, 30 minutes, versus naive mice): decreased analgesic effect
analgesia ([2]; naive or non-tolerant mice, s.c. challenge dose 3 mg/kg, hot plate test): 90%

human Cu/Zn superoxide dismutase: naturally occurring enzyme used intra-articularly as a nonsteroidal anti-inflammatory
Positive response in terms of mandibular movement and pain [3]: 83 % of patients

NC(=NCCC[C@H](N)C(=O)O)N[N+](=O)[O-] [NG-nitroarginine]
morphine tolerance [1]: prevent and reverse morphine tolerance
